# Measured values: patent US4464354A, “(3,4-c)-Pyrido psoralens, process of preparation, application in cosmetology and therapeutics, and cosmetological and pharmaceutical composition with them” (Institut National de la Sante et de la Recherche Medicale, priority 1982, dated 1984)
# Entries after “also recorded” stand apart in the source; their conditions may differ.
# How the values were obtained:
# [1] = photochemical stability under ultraviolet irradiation; assay type: physicochemical; details: free in solution, ultraviolet irradiation up to an incident dose of 27 kJ/m2
# [2] = system: V79 chinese hamster cells; assay: antiproliferatory effect: inhibition of colony formation of V79 cells; assay type: cell-based; details: 5×10^-6 M
# Description: The photobiological activity of the two monofunctional componds 1a and 1b have been studied in mammalian cells in vitro in order to determine their antiproliferatory effect.
# A diploid strain of V79 chinese hamster cells were used.
# The action of the compounds on cell survival (i.e. the antiproliferatory effect) was determined by measuring their power to inhibit the capacity of cells to form colonies. The technique used is that described by C.
# [3] = system: Saccharomyces cerevisiae yeast; assay: induction of forward mutations (resistance to canavanine); assay type: cell-based
# Description: This photobiological activity has in effect been defined by the induction of lethal effects, the induction of "small colony" cytoplasmic mutations (damage in the mitochondrial DNA) and the induction of nuclear mutations (reverse and forward). The experiments were conducted in the customary manner in conformity with the following references: […]
# yeast mutant pso2 = assay: sensitivity of yeast mutant pso2 versus wild type to photo-addition
# [4] = system: haploid strain of Saccharomyces cerevisiae yeast; assay: induction of nuclear mutations: His+ reversions; assay type: cell-based; details: 5×10^-6 M, same survivor rate
# Description: (§1) This photobiological activity has in effect been defined by the induction of lethal effects, the induction of "small colony" cytoplasmic mutations (damage in the mitochondrial DNA) and the induction of nuclear mutations (reverse and forward). The experiments were conducted in the customary manner in conformity with the following references:
# The induction of nuclear mutations (reversions and "forward" mutations) has been determined according to procedures described in the above-mentioned articles.
# DNA [5] = assay: complexation with DNA by absorption and emission spectroscopy; assay type: binding
# [6] = mutagenicity (general statements)
# DNA [7] = assay: thermal denaturation-renaturation of DNA modified in the presence of UVA; assay type: biochemical
# Text: Experiments of thermal denaturation-renaturation carried out on the DNA Modified by the compound 1a in the presence of UVA (incident dose ranging up to 27 Kj/m2) yielding values of the non-renaturating fraction of 100%.
# [8] = system: DNA of cells of the wild type; assay: direct biochemical verification of cross-linking in DNA of cells treated and irradiated at 365 nm; assay type: cell-based, yeast
# Text: Indeed, DNA of cells of the wild type were extracted immediately after treatment with products 1a, 1b at a concentration of 10^-5 M and irradiation with two doses of radiation at 365 nm (30% and 5% survival rate). […] If the DNA contains cross-links it renatures itself and is found in the double chain form separable by gradient density from single chain DNA.
# DNA [9] = assay: photoaffinity for DNA in vivo; assay type: cell-based, yeast
# [10] = system: Saccharomyces cerevisiae yeast; assay: induction of lethal effects in yeast with 365 nm irradiation (UVA); assay type: cell-based
# Description: as §1
# Thus, the dose of UVA must be between 2.5 and 5 times weaker in the case of compounds 1a and 1b than in the case of 8-MOP to attain the same survival rate.
# mitochondrial DNA = assay: induction of "small colony" cytoplasmic mutations; assay type: cell-based, Saccharomyces cerevisiae; details: in 10% of the survivors
# Description: as §1
# If the induction of cytoplasmic mutations is considered as a function of the survivors, the compounds 1a and 1b which are monofunctional derivatives of psoralen, show in 10% of the survivors a rate of induction of cytoplasmic mutation greater than 50%.
# DNA [11] = assay: formation of cross-links in DNA (general statements); assay type: biochemical; details: from induction of cytoplasmic and nuclear mutations
# [12] = spectroscopic absorption properties; assay type: physicochemical; details: compared with psoralen
# Text: Compounds 1a and 1b have similar spectroscopic properties which differ markedly with respect to those of psoralen.
# psoriatic plaque = assay: therapeutic test on psoriatic plaque, products 1a and 1b; assay type: in vivo, human
# Description: 10 mg of compounds 1a and 1b were diluted in 2 g of a purified lanolin commercially available under the name ROC hydrocerine which was made liquid by heating to 60° C. Products 1a and 1b have also been tested in the same excipient on a high inflammatory psoriatic plaque. These two products were applied to surfaces having a 3 cm diameter. On a third surface the excipient alone was applied. […] The products and the lanolin alone were applied 2 hours before irradiation. […] This whitening was practically as fast in the zones treated with products 1a and 1b. The zone treated with lanolin alone remained unchanged.
# synthesis of RNA = assay: photosensitizer effect on RNA synthesis in human fibroblasts; assay type: cell-based; details: UVA 365 nm
# Text: (§2) (F. Bordin, F. Baccichetti and L. Musajo, Experientia 28, 148 (1972)).
# (§3) The cells cultivated in Petri dishes having a minimum Eagle medium with 10% embryonic calf serum were marked by precursors which were specific to the exponential phase of growth. The rates of synthesis were estimated by measuring the incorporation of the radioactive precursors in the acid-precipitable material (see S. Nocentini, Biochim. Biophys., Acta 521, 160 (1978)).
# normal skin = assay: pigmentogenic properties on normal skin; assay type: in vivo, human; details: 0.5%
# Text: The pigmentogenic properties of products 1a and 1b have been tested on normal skin at a concentration of 0.5%.
# normal human skin = assay: erythema test on normal human skin (forearm); assay type: in vivo
# Description: The clinical and therapeutic activity of compounds 1a and 1b has been also measured on human skin. 10 mg of compounds 1a and 1b were diluted in 2 g of a purified lanolin commercially available under the name ROC hydrocerine which was made liquid by heating to 60° C. This local preparation was first tested on normal human skin (of the forearm). An amount of 10 micrograms/cm2 of products 1a and 1b was applied to a circular cutaneous surface 3 cm in diameter. The two products were left on the skin for 2 hours to insure a sufficient cutaneous penetration. […] The same experiment was repeated a second time with irradiation of 20 J/cm2 through a glass plate in order to filter out all the ultraviolet B radiation. […] This erythema, slightly apparent, continued for 18 days. […] The […] result of the reflective photoplethysmograph were totally identical for products 1a and 1b. […] The […] only appeared in doses of irradiation where are twice that customarily used in a therapeutic treatment.
# synthesis of DNA = assay: photosensitizer effect on DNA synthesis in human fibroblasts; assay type: cell-based; details: UVA 365 nm
# Text: as §2, §3
# [13] = 30 micrograms/cm2, by the tenth treatment
# [14] = 30 micrograms/cm2, from the fourth treatment
# [15] = 10 micrograms/cm2, UVA 20 J/cm2
smiles,measurement,setting,value
"O=c1oc2cc3occc3cc2c2ccncc12 [Compound 1a, Pyrido (3,4-c) furo (3,2-g) coumarin]",photochemical stability,[1],good photochemical stability
same,LD10 (dose which leaves 10% survive),[2]; UVA,1800 J/cm2
same,considerable photosensitivity in V79 cells,[2]; UVA,considerable photosensitivity
same,relative antiproliferatory effect,[2]; UVA,"compared to 8-MOP, a higher antiproliferatory effect; also recorded: comparable to that of bifunctional furocoumarins"
same,diminution of cell survival in absence of radiation,[2]; no radiation,no diminution of cell survival
same,"forward mutations as a function of surviving fractions compared with 3-CPs, 8-MOP and 4,5',8-TMeP",[3],"markedly less mutagenic than 3-CPs and the bifunctional compounds 8-MOP and 4,5', 8-TMeP"
same,forward mutations as a function of UVA doses compared with 3-CPs,[3]; 5×10^-6 M versus 3-CPs at 5×10^-5 M,comparable to those obtained with 3-CPs at 5×10^-5 M
same,photoreactivity on yeast strains,yeast mutant pso2,very photoreactive
same,sensitivity of pso2 mutant compared with wild type,yeast mutant pso2; photo-addition,same sensitivity as the wild type
same,His+ reversions rate compared with 3-CPs,[4],less than that observed after the treatment with 3-CPs
same,"His+ reversions rate compared with 8-MOP and 4,5',8-TMeP",[4],"very much less than that observed after treatment with the bifunctional agents 8-MOP and 4,5', 8-TMeP"
same,complexation with DNA,DNA [5],considerable complexation
same,solubility in the DNA relative to mixture of alcohol and water,DNA [5],at least 10 factor
same,mutagenicity compared with 3-carbethoxypsoralen (conclusion),[6],less mutagenic than 3-carbethoxypsoralen
same,induction of biadditions on the DNA,DNA [7],cannot induce biadditions on the DNA
same,non-renaturating fraction,DNA [7]; UVA incident dose ranging up to 27 kJ/m2,100%
same,form of DNA after renaturation (cross-links),"[8]; 10^-5 M, 365 nm, two doses (30% and 5% survival rate)",remains in single chain form after renaturation
same,functional type (mono/bifunctional),[8]; pso2 mutant and direct examination of DNA,mono functional type
same,photoaffinity for DNA in vivo compared with 3-CPs,DNA [9],makedly much high than that of monofunctional furocoumarin 3-CPs
same,photoaffinity for DNA in vivo relative to 8-MOP,DNA [9],about 10 times
same,photoaffinity in respect to DNA compared with 8-MOP (conclusion),DNA [9],markedly greater than that of 8-MOP
same,"photoreactivity compared with 4,5',8-trimethylpsoralen (conclusion)",[10],"close to that of 4,5'-8-trimethylpsoralen"
same,induction of lethal effects compared with 8-MOP,"[10]; 5×10^-5 M, 365 nm (UVA)",activity close to that of 8-methoxypsoralen
same,activity on cell survival relative to 8-MOP,"[10]; 5×10^-6 M, survival curves",2.5 times
same,photodynamic activity (oxygen dependent) on induction of lethal damages,[10]; yeast,do not exert on the yeast photodynamic activity
same,rate of induction of cytoplasmic mutation,mitochondrial DNA,greater than 50%
same,formation of cross-links in the DNA (conclusion),DNA [11],incapable of forming cross-links in the DNA
same,coefficient of molecular absorption at 365 nm,[12],notably a higher coefficient of molecular absorption at 365 nm
same,"antipsoriatic action, third patient",psoriatic plaque; 30 μg/cm2 two hours before UVA,did not have a detectable antipsoriatic action
same,erythema or secondary effect during treatments,psoriatic plaque; 30 micrograms/cm2,no erythema or secondary effect was observed
same,hyperpigmentation,psoriatic plaque; 30 micrograms/cm2,hyperpigmentation was found
same,total UVA dose to complete whitening,psoriatic plaque; [13],50 J/cm2
same,whitening of treated zones,psoriatic plaque; [13],complete whitening of the zones treated
same,decrease of squamae,psoriatic plaque; [14],slight decrease of the squamae
same,reduction of infiltration,psoriatic plaque; [14],tangible reduction of the infiltration
same,antipsoriatic activity (conclusion),psoriatic plaque; applied locally,good antipsoriatic activity
same,inhibition capacity (RNA) compared with 3-CPs,synthesis of RNA,much more than 3-CPs
same,inhibition capacity (RNA) compared with 8-MOP,synthesis of RNA,slightly more powerful than 8-MOP
same,"pigmentogenic properties, 1b versus 1a",normal skin,pigmentogenic
same,pigmentation of normal skin,"normal skin; three normal patients, total UVA doses of 140 J/cm2","very slight pigmentation, hardly visible, in only two of the three patients"
same,erythema at 5 J/cm2,"normal human skin; 10 micrograms/cm2, 2 hours before UVA 5 J/cm2",no precocious or delayed erythema was observed
same,duration of erythema,normal human skin; [15],18 days
same,time of appearance of erythema,normal human skin; [15],72 h
same,erythema at 20 J/cm2,"normal human skin; 10 micrograms/cm2, UVA 20 J/cm2 through glass plate",slight erythema
same,desquamation or local pain,normal human skin; UVA 20 J/cm2,no desquamation or local pain
same,systolic pulse of the capillaries at erythematic zones (reflective photoplethysmography),normal human skin; UVA 20 J/cm2,doubling of the systolic pulse
same,erythematogenicity (conclusion),normal human skin; in vivo,not erythmatogenic in conditions of irradiation customarily used in human therapy; also recorded: very mildly erythmatogenic
same,inhibition capacity (DNA) compared with 3-CPs,synthesis of DNA,much more than 3-CPs
same,inhibition capacity (DNA) compared with 8-MOP,synthesis of DNA,slightly more powerful than 8-MOP
